In brackets after ≈: the same amount, converted by molar mass. Read-outs that look alike come from different tables or passages of the source. One block for each compound: values may come before it.
Experiments:
[1] = test system: Candida glabrata CG15, VT18; experiment: MIC against multiresistant C. glabrata; type: cell-based
Experimental: (§1) In this example, the efficacy of Examples 1, 10 and 13 were tested against multi-drug resistant microorganisms.
(§2) Bacterial strains tested: Pseudomonas aeruginosa AGR 18 and MR23 multiresistant. Fungal strain: Candida glabrata CG15, VT18 resistant to Amphotericin B and Voriconazole Microbiological efficacy was determined as the Minimal Inhibitory Concentration.
The bactericidal activities of Examples 1, 10 and 13 against multiresistant C. glabrata isolates are shown below in Table 18.

[2] = test system: Pseudomonas aeruginosa AGR 18 and MR23 multiresistant; experiment: MIC against multi-drug resistant P. aeruginosa; type: cell-based
Experimental: as §1, §2
The bactericidal activities of Examples 1, 10 and 13 against multiresistant P. aeruginosa isolates are shown below in Table 17.

[3] = test system: Vancomycin resistant S. aureus (VRSA); experiment: MIC by broth macrodilution against S. aureus isolates; type: cell-based; conditions: Staphylococcus aureus
Experimental: In this example, the efficacy of the inventive preparations was tested against Vancomycin resistant S. aureus (VRSA)
The MICs were determined using a broth macrodilution method with cation-adjusted Mueller-Hinton broth II (Becton Dickinson) at standard inoculum (10^5 cfu/mL) following the CLSI recommendations. The cultures used in this study were bacterial clinical isolates from human infections.

MSSA strain ATCC 29213 = experiment: MIC by broth macrodilution against S. aureus isolates, MSSA strain; type: cell-based; conditions: Staphylococcus aureus, read-out: MSSA strain MIC
Description: The cultures used in this study were bacterial clinical isolates from human infections.

A. fumigatus [4] = experiment: MIC by broth macrodilution, Example 22; type: cell-based, Aspergillus fumigatus; conditions: CLSI
Experimental: (§3) The potency of Example Nos. 1, 5 and 10 were examined against bacterial isolates from patients with cystic fibrosis. The MICs values were determined by the broth macrodilution method according to the CLSI guideline. For the in vivo studies, 8-week-old C57BL/6 mice were intranasally infected with P. aeruginosa MR-6 (2×10^7 cfu/mouse)+A. fimigatus (6×10^6 cfu/mouse).

P. aeruginosa [5] = experiment: Animal model of respiratory infection, mortality; type: in vivo, C57BL/6 mice; conditions: mice, intranasal infection; treatment 12 h after infection by intranasal inhalation at 32×MIC
Experimental: (§4) In this example the efficacy of the preparations were tested against an animal model of mixed respiratory infection.
as §3

A. fumigatus [6] = experiment: Animal model of respiratory infection, mortality; type: in vivo, C57BL/6 mice; conditions: mice, intranasal infection; treatment 12 h after infection by intranasal inhalation at 32×MIC
Experimental: as §4, §3

P. aeruginosa [7] = experiment: MIC by broth macrodilution, isolates from patients with cystic fibrosis, Example 22; type: cell-based; conditions: Pseudomonas aeruginosa, CLSI, read-out: MIC against P. aeruginosa
Experimental: as §3

[8] = test system: P. aeruginosa + A. fumigatus; experiment: Animal model of mixed respiratory infection, mortality; type: in vivo, C57BL/6 mice; conditions: mice, intranasal infection; treatment 12 h after infection by intranasal inhalation at 32×MIC
Experimental: as §4, §3

Ehrlich solid tumor = experiment: Ehrlich solid tumor, combined effect with anticancer drugs; type: in vivo; conditions: combination study, 0.2 ml of 0.01% solution intraperitoneally
Experimental: In this experiment, a model of continuous Ehrlich solid tumor was used to study combined effect of claimed product with anticancer drugs. The drugs were administered simultaneously with the tumor transplantation (0.2 ml of 0.01% solution) intraperitoneally. The control animals received water (used as solvent for the drugs tested).

[9] = VT-A-199, read-out: VRSA strain MIC
[10] = VT-V-18, read-out: VRSA strain MIC
[11] = VT-V-25, read-out: VRSA strain MIC

Compound: C[C@@H]1[C@H](O)[C@@H](C)/C=C/C=C/C=C/C=C/C=C/C=C/C=C/[C@H](O[C@@H]2O[C@H](C)[C@@H](O)[C@H](N)[C@@H]2O)C[C@@H]2O[C@](O)(C[C@@H](O)C[C@@H](O)[C@H](O)CC[C@@H](O)C[C@@H](O)CC(=O)O[C@H]1C)C[C@H](O)[C@H]2C(=O)O [AMB]
Minimal inhibitory concentration ([1]; C. glabrata CG1514053): 4 µg/mL (≈ 4.33 µM)
Minimal inhibitory concentration ([1]; C. glabrata VT18): 8 µg/mL (≈ 8.66 µM)

Compound: NCC[C@H](O)C(=O)N[C@@H]1C[C@H](N)[C@@H](O[C@H]2O[C@H](CN)[C@@H](O)[C@H](O)[C@H]2O)[C@H](O)[C@H]1O[C@H]1O[C@H](CO)[C@@H](O)[C@H](N)[C@H]1O [Amikacin]
MIC ([2]; P. aeruginosa strain AGR 18): 128 µg/mL (≈ 219 µM)
MIC ([2]; P. aeruginosa strain MR23): 256 µg/mL (≈ 437 µM)

MIC [3, 9]: 16 µg/mL (≈ 45.8 µM)
MIC [3, 10]: 64 µg/mL (≈ 183 µM)
MIC [3, 11]: 32 µg/mL (≈ 91.6 µM)
MIC (MSSA strain ATCC 29213; ATCC 29213): 0.25 µg/mL (≈ 0.715 µM)
Compound: CC1(C)S[C@@H]2[C@H](NC(=O)[C@H](N)c3ccccc3)C(=O)N2[C@H]1C(=O)O [Ampicillin]

Compound: C[C@H]1[C@H](NC(=O)/C(=N\OC(C)(C)C(=O)O)c2csc(N)n2)C(=O)N1S(=O)(=O)O [Aztreonam, aztreonam]
MIC against A. fumigatus (A. fumigatus [4]): not active
MIC ([2]; P. aeruginosa strain AGR 18): 32 µg/mL (≈ 73.5 µM)
MIC ([2]; P. aeruginosa strain MR23): 128 µg/mL (≈ 294 µM)
Percent mortality 96 h post infection, P. aeruginosa (P. aeruginosa [5]): 20%
Percent mortality 96 h post infection, A. fumigatus (A. fumigatus [6]): 30%
MIC (P. aeruginosa [7]): 64 µg/mL (≈ 147 µM)
Percent mortality 96 h post infection, P. aeruginosa + A. fumigatus [8]: 60%

Compound: CC(C)(O/N=C(\C(=O)N[C@@H]1C(=O)N2C(C(=O)[O-])=C(C[n+]3ccccc3)CS[C@H]12)c1csc(N)n1)C(=O)O [Ceftazidime]
MIC ([2]; P. aeruginosa strain AGR 18): 32 µg/mL (≈ 58.5 µM)
MIC ([2]; P. aeruginosa strain MR23): 32 µg/mL (≈ 58.5 µM)

Compound: N.N.[Cl][Pt][Cl] [Cisplatin]
Tumor size, 7 days after transplantation (Ehrlich solid tumor; 7 days): 72.4 mm^3
Tumor size, 11 days after transplantation (Ehrlich solid tumor; 11 days): 180.7 mm^3
Tumor size, 14 days after transplantation (Ehrlich solid tumor; 14 days): 243.3 mm^3
Tumor size, 18 days after transplantation (Ehrlich solid tumor; 18 days): 345.8 mm^3
Tumor size, 22 days after transplantation (Ehrlich solid tumor; 22 days): 548.2 mm^3
Tumor size, 25 days after transplantation (Ehrlich solid tumor; 25 days): 607.7 mm^3

Compound: CCC[C@@H]1C[C@@H](C(=O)N[C@@H]([C@H]2O[C@H](SC)[C@H](O)[C@@H](O)[C@H]2O)[C@H](C)Cl)N(C)C1 [Clindamycin]
MIC [3, 9]: 2 µg/mL (≈ 4.71 µM)
MIC [3, 10]: 4 µg/mL (≈ 9.41 µM)
MIC [3, 11]: 2 µg/mL (≈ 4.71 µM)
MIC (MSSA strain ATCC 29213; ATCC 29213): 0.125 µg/mL (≈ 0.294 µM)

Compound: C[C@@H](O)[C@H]1C(=O)N2C(C(=O)O)=C(S[C@@H]3CN[C@H](C(=O)N(C)C)C3)[C@H](C)[C@H]12 [Meropenem]
MIC [3, 9]: 128 µg/mL (≈ 334 µM)
MIC [3, 10]: 32 µg/mL (≈ 83.4 µM)
MIC [3, 11]: 128 µg/mL (≈ 334 µM)
MIC (MSSA strain ATCC 29213; ATCC 29213): 0.125 µg/mL (≈ 0.326 µM)

Compound: CCN1CCN(C(=O)N[C@@H](C(=O)N[C@@H]2C(=O)N3[C@@H]2SC(C)(C)[C@@H]3C(=O)O)c2ccccc2)C(=O)C1=O [Piperacillin]
MIC ([2]; P. aeruginosa strain AGR 18): > 256 µg/mL
MIC ([2]; P. aeruginosa strain MR23): 256 µg/mL (≈ 495 µM)

Compound: NC[C@H]1O[C@H](O[C@H]2[C@H](O)[C@@H](O[C@H]3O[C@H](CO)[C@@H](O)[C@H](N)[C@H]3O)[C@H](N)C[C@@H]2N)[C@H](N)C[C@@H]1O [Tobramycin, tobramycin]
MIC against A. fumigatus (A. fumigatus [4]): not active
MIC ([2]; P. aeruginosa strain AGR 18): 32 µg/mL (≈ 68.4 µM)
MIC ([2]; P. aeruginosa strain MR23): 32 µg/mL (≈ 68.4 µM)
Percent mortality 96 h post infection, P. aeruginosa (P. aeruginosa [5]): 20%
Percent mortality 96 h post infection, A. fumigatus (A. fumigatus [6]): 40%
MIC (P. aeruginosa [7]): 16 to 32 µg/mL (≈ 34.2 to 68.4 µM)
Percent mortality 96 h post infection, P. aeruginosa + A. fumigatus [8]: 50%

Compound: C[C@@H](c1ncncc1F)[C@](O)(Cn1cncn1)c1ccc(F)cc1F [VRZ]
Minimal inhibitory concentration ([1]; C. glabrata CG1514053): 8 µg/mL (≈ 22.9 µM)
Minimal inhibitory concentration ([1]; C. glabrata VT18): 4 µg/mL (≈ 11.5 µM)

Compound: CN[C@H](CC(C)C)C(=O)N[C@H]1C(=O)N[C@@H](CC(N)=O)C(=O)N[C@H]2C(=O)N[C@H]3C(=O)N[C@H](C(=O)N[C@H](C(=O)O)c4cc(O)cc(O)c4-c4cc3ccc4O)[C@H](O)c3ccc(c(Cl)c3)Oc3cc2cc(c3O[C@@H]2O[C@H](CO)[C@@H](O)[C@H](O)[C@H]2O[C@H]2C[C@](C)(N)[C@H](O)[C@H](C)O2)Oc2ccc(cc2Cl)[C@H]1O [Vancomycin]
MIC ([3]; read-out: VRSA strain MIC, VT-A-199): 16 µg/mL (≈ 11 µM)
MIC ([3]; read-out: VRSA strain MIC, VT-V-18): 16 µg/mL (≈ 11 µM)
MIC ([3]; read-out: VRSA strain MIC, VT-V-25): 1 µg/mL (≈ 0.69 µM)
MIC (MSSA strain ATCC 29213): 0.5 µg/mL (≈ 0.345 µM)

Reference: patent US11285170B2, “Fractionated antimicrobial compositions and use thereof” (priority 2017, dated 2022)
